Key:
Assay type in all cases: functional
KM12 = assay: Cytotoxicity against Homo sapiens (human) KM12 cells after 48 hr by SRB assay; settings: KM12, 48 h
M14 = assay: Cytotoxicity against Homo sapiens (human) M14 cells after 48 hr by SRB assay; settings: M14, 48 h
[1] = Cytotoxicity against Homo sapiens (human) NCI-H322 cells after 48 hr by SRB assay; settings: NCI-H322, 48 h
[2] = Cytotoxicity against Homo sapiens (human) ovarian cancer cells after 48 hr by SRB assay; settings: Cancer cell lines
BT-549 = assay: Cytotoxicity against Homo sapiens (human) BT549 cells after 48 hr by SRB assay; settings: BT-549, 48 h
[3] = Cytotoxicity against Homo sapiens (human) melanoma cells after 48 hr by SRB assay; settings: Melanoma cell
OVCAR-3 = assay: Cytotoxicity against Homo sapiens (human) OVCAR3 cells after 48 hr by SRB assay; settings: OVCAR-3, 48 h
RPMI-8226 = assay: Cytotoxicity against Homo sapiens (human) RPMI8226 cells after 48 hr by SRB assay; settings: RPMI-8226, 48 h
SK-MEL-5 = assay: Cytotoxicity against Homo sapiens (human) SK-MEL-5 cells after 48 hr by SRB assay; settings: SK-MEL-5, 48 h
SNB-19 = assay: Cytotoxicity against Homo sapiens (human) SNB19 cells after 48 hr by SRB assay; settings: SNB-19, 48 h
[4] = Cytotoxicity against Homo sapiens (human) leukemia cells after 48 hr by SRB assay; settings: Leukemia cell
NCI-H23 = assay: Cytotoxicity against Homo sapiens (human) NCI-H23 cells after 48 hr by SRB assay; settings: NCI-H23, 48 h
PC-3 = assay: Cytotoxicity against Homo sapiens (human) PC3 cells after 48 hr by SRB assay; settings: PC-3, 48 h
IGROV-1 = assay: Cytotoxicity against Homo sapiens (human) IGROV1 cells after 48 hr by SRB assay; settings: IGROV-1, 48 h
SN12C = assay: Cytotoxicity against Homo sapiens (human) SN12C cells after 48 hr by SRB assay
MCF7 [5] = assay: Cytotoxicity against Homo sapiens (human) MCF7 cells assessed as cellular growth after 48 hr by Alamar blue assay; set-up: concentration or dose not given beside the values
HCT-15 = assay: Cytotoxicity against Homo sapiens (human) HCT15 cells after 48 hr by SRB assay; settings: HCT-15, 48 h
MCF7 [6] = assay: Cytotoxicity against Homo sapiens (human) MCF7 cells after 48 hr by SRB assay; settings: MCF7, 48 h
SF-295 = assay: Cytotoxicity against Homo sapiens (human) SF295 cells after 48 hr by SRB assay; settings: SF-295, 48 h
Hs-578T = assay: Cytotoxicity against Homo sapiens (human) Hs578T cells after 48 hr by SRB assay
[7] = Cytotoxicity against Homo sapiens (human) colon cancer cells after 48 hr by SRB assay; settings: Cancer cell lines
NCI-H522 = assay: Cytotoxicity against Homo sapiens (human) NCI-H522 cells after 48 hr by SRB assay; settings: NCI-H522, 48 h
EKVX = assay: Cytotoxicity against Homo sapiens (human) EKVX cells after 48 hr by SRB assay
HOP-62 = assay: Cytotoxicity against Homo sapiens (human) HOP62 cells after 48 hr by SRB assay; settings: HOP-62, 48 h
SK-OV-3 = assay: Cytotoxicity against Homo sapiens (human) SKOV3 cells after 48 hr by SRB assay; settings: SK-OV-3, 48 h
HOP-92 = assay: Cytotoxicity against Homo sapiens (human) HOP92 cells after 48 hr by SRB assay; settings: HOP-92, 48 h
MOLT-4 = assay: Cytotoxicity against Homo sapiens (human) MOLT4 cells after 48 hr by SRB assay; settings: MOLT-4, 48 h
SF-268 = assay: Cytotoxicity against Homo sapiens (human) SF268 cells assessed as cellular growth after 48 hr by Alamar blue assay; set-up: concentration or dose not given beside the values
OVCAR-4 = assay: Cytotoxicity against Homo sapiens (human) OVCAR4 cells after 48 hr by SRB assay; settings: OVCAR-4, 48 h
COLO 205 = assay: Cytotoxicity against Homo sapiens (human) COLO205 cells after 48 hr by SRB assay; settings: COLO 205, 48 h
UO-31 = assay: Cytotoxicity against Homo sapiens (human) UO31 cells after 48 hr by SRB assay; settings: UO-31, 48 h
[8] = Cytotoxicity against Homo sapiens (human) NCI-ADR-RES cells after 48 hr by SRB assay
UACC-62 = assay: Cytotoxicity against Homo sapiens (human) UACC62 cells after 48 hr by SRB assay; settings: UACC-62, 48 h
[9] = Cytotoxicity against Homo sapiens (human) breast cancer cells after 48 hr by SRB assay; settings: Cancer cell lines
[10] = Cytotoxicity against Homo sapiens (human) renal cancer cells after 48 hr by SRB assay; settings: Cancer cell lines
T47D = assay: Cytotoxicity against Homo sapiens (human) T47D cells after 48 hr by SRB assay
MDA-MB-231 = assay: Cytotoxicity against Homo sapiens (human) MDA-MB-231 cells after 48 hr by SRB assay; settings: MDA-MB-231, 48 h
[11] = Cytotoxicity against Homo sapiens (human) CNS cancer cells after 48 hr by SRB assay; settings: Cancer cell lines
786-0 = assay: Cytotoxicity against Homo sapiens (human) 786-0 cells after 48 hr by SRB assay; settings: 786-0, 48 h
A549 = assay: Cytotoxicity against Homo sapiens (human) A549 cells after 48 hr by SRB assay; settings: A549, 48 h
CAKI-1 = assay: Cytotoxicity against Homo sapiens (human) Caki1 cells after 48 hr by SRB assay; settings: CAKI-1, 48 h
RXF 393 = assay: Cytotoxicity against Homo sapiens (human) RXF393 cells after 48 hr by SRB assay; settings: RXF 393, 48 h
SW-620 = assay: Cytotoxicity against Homo sapiens (human) SW620 cells after 48 hr by SRB assay; settings: SW-620, 48 h
OVCAR-5 = assay: Cytotoxicity against Homo sapiens (human) OVCAR5 cells after 48 hr by SRB assay; settings: OVCAR-5, 48 h
MDA-MB-435 = assay: Cytotoxicity against Homo sapiens (human) MDA-MB-435 cells after 48 hr by SRB assay; settings: MDA-MB-435, 48 h
U-251 = assay: Cytotoxicity against Homo sapiens (human) U251 cells after 48 hr by SRB assay; settings: U-251, 48 h
NCI-H460 = assay: Cytotoxicity against Homo sapiens (human) NCI-H460 cells assessed as cellular growth after 48 hr by Alamar blue assay; set-up: concentration or dose not given beside the values

Molecule `O=S(=O)(NC(=S)Nc1ccccc1)c1ccc(N2N=C3c4ccccc4CC3C2c2cccs2)cc1` (stereo not drawn) has a GI50 (KM12) of 21.5 µM, a GI50 (M14) of 22.7 µM and a GI50 [1] of 56.6 µM. It also gave a GI50 [2] of 43 µM, a TGI [2] of 81.3 µM and a GI50 (BT-549) of 24.6 µM. The GI50 [3] was 32.2 µM, the TGI [3] was 68.4 µM and the GI50 (OVCAR-3) was 17.2 µM. For the same molecule, the GI50 (RPMI-8226) was 30.3 µM, the GI50 (SK-MEL-5) was 20.8 µM and the GI50 (SNB-19) was 33.8 µM. It also gave a GI50 [4] of 27.4 µM, a TGI [4] of 85 µM and a GI50 (NCI-H23) of 17.6 µM. The GI50 (PC-3) was 22.9 µM, the GI50 (IGROV-1) was 65.3 µM and the GI50 (SN12C) was 21.4 µM. The Activity (MCF7 [5]) was “<=32%”, the GI50 (HCT-15) was 22.6 µM and the GI50 (MCF7 [6]) was 3.1 µM. It also gave a GI50 (SF-295) of 18.9 µM, a GI50 (Hs-578T) of 20.9 µM and a GI50 [7] of 25.9 µM. It also gave a TGI [7] of 75.9 µM, a GI50 (NCI-H522) of 32.8 µM and a GI50 (EKVX) of 19.5 µM. For the same molecule, the GI50 (HOP-62) was 20.3 µM, the GI50 (SK-OV-3) was 49.5 µM and the GI50 (HOP-92) was 24.9 µM. For the same molecule, the GI50 (MOLT-4) was 17.5 µM, the Activity (SF-268) was “<=32%” and the GI50 (OVCAR-4) was 69.8 µM. The GI50 (COLO 205) was 41.9 µM, the GI50 (UO-31) was 51.2 µM and the GI50 [8] was 19.3 µM. It also gave a GI50 (UACC-62) of 18.5 µM, a GI50 [9] of 30.8 µM and a TGI [9] of 57.3 µM. It also gave a GI50 [10] of 32.5 µM, a TGI [10] of 47 µM and a GI50 (T47D) of over 100 µM. It also gave a GI50 (MDA-MB-231) of 24.8 µM, a GI50 [11] of 34 µM and a TGI [11] of 77.5 µM. The GI50 (786-0) was 19.7 µM, the GI50 (A549) was 15.7 µM and the GI50 (CAKI-1) was 18.5 µM. For the same molecule, the GI50 (RXF 393) was 78.1 µM, the GI50 (SW-620) was 30 µM and the GI50 (OVCAR-5) was 17.9 µM. For the same molecule, the GI50 (MDA-MB-435) was 19.4 µM, the GI50 (U-251) was 26.2 µM and the Activity (NCI-H460) was “<=32%”.

`O=C1CS/C(=N\S(=O)(=O)c2ccc(N3N=C4c5ccccc5CC4C3c3cccs3)cc2)N1C(=O)c1ccccc1` (stereo not drawn) showed a GI50 (KM12) of 21.4 µM, a GI50 (M14) of 44.7 µM and a GI50 [1] of 16.6 µM. The GI50 [2] was 60.9 µM, the TGI [2] was over 100 µM and the GI50 (BT-549) was 33.5 µM. It also gave a GI50 [3] of 73.3 µM, a TGI [3] of over 100 µM and a GI50 (OVCAR-3) of 59.2 µM. For the same molecule, the GI50 (RPMI-8226) was 34 µM, the GI50 (SK-MEL-5) was 22.7 µM and the GI50 (SNB-19) was 77 µM. It also gave a GI50 [4] of 31.2 µM, a TGI [4] of 84.5 µM and a GI50 (NCI-H23) of 25.1 µM. The GI50 (PC-3) was 38.1 µM, the GI50 (IGROV-1) was 28.3 µM and the GI50 (SN12C) was 90.7 µM. For the same molecule, the Activity (MCF7 [5]) was “<=32%”, the GI50 (HCT-15) was 56.3 µM and the GI50 (MCF7 [6]) was over 100 µM. For the same molecule, the GI50 (SF-295) was 31.7 µM, the GI50 (Hs-578T) was 25.3 µM and the GI50 [7] was 40.4 µM. For the same molecule, the TGI [7] was 79.8 µM, the GI50 (NCI-H522) was 60.1 µM and the GI50 (EKVX) was 42.4 µM. The GI50 (HOP-62) was 32.9 µM, the GI50 (SK-OV-3) was over 100 µM and the GI50 (HOP-92) was 37.3 µM. The GI50 (MOLT-4) was 22.2 µM, the Activity (SF-268) was “<=32%” and the GI50 (OVCAR-4) was over 100 µM. The GI50 (COLO 205) was 51 µM, the GI50 (UO-31) was over 100 µM and the GI50 [8] was over 100 µM. The GI50 (UACC-62) was 23.2 µM, the GI50 [9] was 63 µM and the TGI [9] was over 100 µM. The GI50 [10] was 59.4 µM, the TGI [10] was 99.1 µM and the GI50 (T47D) was over 100 µM. It also gave a GI50 (MDA-MB-231) of 44.6 µM, a GI50 [11] of 64.9 µM and a TGI [11] of over 100 µM. It also gave a GI50 (786-0) of 48.8 µM, a GI50 (A549) of 70.5 µM and a GI50 (CAKI-1) of 39 µM. It also gave a GI50 (RXF 393) of 63.9 µM, a GI50 (SW-620) of 38.5 µM and a GI50 (OVCAR-5) of 32.2 µM. The GI50 (MDA-MB-435) was 37.4 µM, the GI50 (U-251) was 36.3 µM and the Activity (NCI-H460) was “<=32%”.

— ChEMBL document CHEMBL3046832, “Synthesis of some sulfonamides, disubstituted sulfonylureas or thioureas and some structurally related variants. A class of promising antitumor agents” (2007)
